Test results as given in patent EP0108606B1, “Steroid compounds” (STERWIN AG., priority 1982, dated 1984).
Where two headings read alike, the source gives them in different places.

Columns and labels:
[1] = Bioavailability Test: plasma levels after oral 60 mg capsules of different trilostane particle size; format: in vivo, volunteers; conditions: for AUC at 24 h: human, plasma, po, 120 mg, 120 mg trilostane (2 x 60 mg capsules) oral, empty stomach, eight volunteers, read-out: Trilostane AUCo^24
Protocol: 60 mg capsules were prepared as described in Example 1 by wet granulation techniques using batches of trilostane comprising (i) particles having a mean equivalent sphere volume diameter of about 10 µm (at least about 95% of the particles having a particle size of less than about 50 pm), (ii) particles of mean equivalent sphere volume diameter of about 45 µm, and (iii) particles of mean equivalent sphere volume diameter greater than 100 pm.
In a three part double blind cross-over study on eight volunteers, each volunteer received a dosage of 120 mg of trilostane (2 x 60 mg capsules) on an empty stomach with 50 ml of tap water. Blood samples (8 ml) were taken pre-medication and at 0.5, 1.0, 2.0, 3.0, 4.0, 5.0, 6.0, 8.0, 10.0 and 24.0 hours and assayed for plasma levels of trilostane and trilostane metabolite. Plasma concentrations were processed by a computer programme giving maximum concentration in plasma (Cmax) and time taken to reach this maximum (Tmax) by inspection. Values for the area under the curve of concentration against time over the time span 0 to t ( [formula] ―where t is time) were then calculated using the trapezoid rule and statistical analysis was carried out using the Students paired t-test.
The following Table I sets out [formula] values (mg.ml^-1.h) for trilostane and 17-keto metabolite.

[2] = In vitro dissolution or release testing of products with different trilostane particle sizes; format: physicochemical; conditions: products containing batches of trilostane of differing particle sizes

C[C@]12CC[C@H]3[C@@H](CC[C@@]45O[C@@H]4C(O)=C(C#N)C[C@]35C)[C@@H]1CC[C@@H]2O [Trilostane, 2a-cyano-4a,5a-epoxyandrostan-17a-ol-3-one]
ratio of Metabolite AUC to Trilostane AUCo^4 ([1]; 10 µm material): 3.1
ratio of Metabolite AUC to Trilostane AUCo^4 ([1]; 45 µm material): 4.5
ratio of Metabolite AUC to Trilostane AUCo^4 ([1]; 100 µm material): 6.5
plasma levels at 24 hours ([1]; 24 hours after 120 mg oral, in most cases): could not be detected
AUC at 24 h ([1]; particle size 10 µm): 1600 µg·h/mL
AUC at 24 h ([1]; particle size 45 µm): 600 µg·h/mL
AUC at 24 h ([1]; particle size 100 µm): 200 µg·h/mL
dissolution or release properties [2]: could not be differentiated
